What all share (assay): glycosidase inhibition assay
What all share (conditions): read-out: % inhibition at 1 mM

In assay [1] the target is T1, α-D-glucosidase from Bacillus stearothermophilus (Geobacillus stearothermophilus, UniProt A0ACH1E9U3).
T1 construct: gene QSJ10_02665
T1 sequence (A0ACH1E9U3 1-555): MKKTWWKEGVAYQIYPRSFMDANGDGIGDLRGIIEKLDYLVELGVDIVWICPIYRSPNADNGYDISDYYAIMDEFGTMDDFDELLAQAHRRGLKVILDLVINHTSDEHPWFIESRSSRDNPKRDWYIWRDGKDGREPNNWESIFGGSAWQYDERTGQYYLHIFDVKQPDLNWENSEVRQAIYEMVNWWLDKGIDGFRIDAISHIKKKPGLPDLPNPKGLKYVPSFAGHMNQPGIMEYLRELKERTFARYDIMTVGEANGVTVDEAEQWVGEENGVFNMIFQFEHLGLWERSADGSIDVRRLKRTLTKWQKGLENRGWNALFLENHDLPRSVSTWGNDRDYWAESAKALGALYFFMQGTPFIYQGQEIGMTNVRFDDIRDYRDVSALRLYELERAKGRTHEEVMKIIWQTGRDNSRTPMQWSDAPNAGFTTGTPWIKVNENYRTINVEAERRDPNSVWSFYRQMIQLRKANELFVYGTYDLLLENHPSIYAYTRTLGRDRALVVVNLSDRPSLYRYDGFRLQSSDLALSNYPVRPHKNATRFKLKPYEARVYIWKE

Assay [2] deals with T2, α-L-fucosidase from bovine kidney (Bos taurus, UniProt Q2KIM0).
T2 construct: gene FUCA1; commercial native enzyme from kidney
T2 sequence (Q2KIM0 23-468): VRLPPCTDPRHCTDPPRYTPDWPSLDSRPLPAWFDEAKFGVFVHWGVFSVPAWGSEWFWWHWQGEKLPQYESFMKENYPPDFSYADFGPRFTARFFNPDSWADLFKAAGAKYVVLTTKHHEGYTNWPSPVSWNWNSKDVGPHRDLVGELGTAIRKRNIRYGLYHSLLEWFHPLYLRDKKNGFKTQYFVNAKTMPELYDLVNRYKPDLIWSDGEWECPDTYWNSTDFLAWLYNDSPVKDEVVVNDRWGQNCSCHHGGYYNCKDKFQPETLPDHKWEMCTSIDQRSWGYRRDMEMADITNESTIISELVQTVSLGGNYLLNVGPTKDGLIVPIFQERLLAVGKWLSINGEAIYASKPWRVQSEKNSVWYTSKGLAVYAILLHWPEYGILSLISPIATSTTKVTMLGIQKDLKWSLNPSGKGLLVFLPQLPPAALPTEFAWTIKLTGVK
It counts as biochemical. From the text:
glycosidase inhibition assay on α-L-fucosidase from bovine kidney

Assay [3] deals with T3, amyloglucosidase from Aspergillus niger (Aspergillus niger, UniProt P69328).
T3 construct: gene GLAA; commercial native enzyme preparation
T3 sequence (P69328 25-640): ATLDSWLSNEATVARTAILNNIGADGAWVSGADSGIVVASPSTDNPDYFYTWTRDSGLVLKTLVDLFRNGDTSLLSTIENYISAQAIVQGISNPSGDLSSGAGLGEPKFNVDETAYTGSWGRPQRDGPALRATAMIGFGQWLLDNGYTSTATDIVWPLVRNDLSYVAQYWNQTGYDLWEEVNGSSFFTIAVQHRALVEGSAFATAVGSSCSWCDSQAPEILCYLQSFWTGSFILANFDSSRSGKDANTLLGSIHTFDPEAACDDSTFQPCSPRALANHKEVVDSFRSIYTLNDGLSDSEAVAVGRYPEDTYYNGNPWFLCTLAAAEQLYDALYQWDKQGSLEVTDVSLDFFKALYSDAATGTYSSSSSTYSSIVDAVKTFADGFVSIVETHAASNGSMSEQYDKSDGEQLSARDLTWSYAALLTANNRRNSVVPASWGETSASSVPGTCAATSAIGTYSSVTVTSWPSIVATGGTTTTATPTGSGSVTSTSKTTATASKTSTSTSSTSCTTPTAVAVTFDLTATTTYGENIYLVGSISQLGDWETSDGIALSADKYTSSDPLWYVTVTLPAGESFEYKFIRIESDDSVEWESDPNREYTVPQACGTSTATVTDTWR
Format: biochemical. From the text:
glycosidase inhibition assay on amyloglucosidase from Aspergillus niger

Assay [4] deals with T4, α-D-mannosidase from Jack beans (Canavalia ensiformis, UniProt C0HJB3).
T4 construct: commercial native enzyme preparation
T4 sequence (C0HJB3 1-562): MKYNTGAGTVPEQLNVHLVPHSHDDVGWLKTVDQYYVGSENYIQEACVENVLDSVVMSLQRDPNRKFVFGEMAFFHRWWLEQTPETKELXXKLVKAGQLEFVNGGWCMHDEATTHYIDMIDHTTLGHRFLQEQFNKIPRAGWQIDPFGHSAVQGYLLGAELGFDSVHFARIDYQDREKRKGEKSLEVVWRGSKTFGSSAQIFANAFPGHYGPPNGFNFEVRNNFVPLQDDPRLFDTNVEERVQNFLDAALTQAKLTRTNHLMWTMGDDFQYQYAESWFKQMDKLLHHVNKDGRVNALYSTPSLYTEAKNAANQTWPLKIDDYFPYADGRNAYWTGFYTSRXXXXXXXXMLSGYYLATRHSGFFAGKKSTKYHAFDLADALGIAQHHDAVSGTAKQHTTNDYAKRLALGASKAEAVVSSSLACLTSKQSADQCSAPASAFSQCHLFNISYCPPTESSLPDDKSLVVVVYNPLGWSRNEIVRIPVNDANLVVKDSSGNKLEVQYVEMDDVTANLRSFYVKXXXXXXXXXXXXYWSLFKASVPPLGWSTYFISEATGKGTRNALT
T4 sequence (C0HJB3 563-981): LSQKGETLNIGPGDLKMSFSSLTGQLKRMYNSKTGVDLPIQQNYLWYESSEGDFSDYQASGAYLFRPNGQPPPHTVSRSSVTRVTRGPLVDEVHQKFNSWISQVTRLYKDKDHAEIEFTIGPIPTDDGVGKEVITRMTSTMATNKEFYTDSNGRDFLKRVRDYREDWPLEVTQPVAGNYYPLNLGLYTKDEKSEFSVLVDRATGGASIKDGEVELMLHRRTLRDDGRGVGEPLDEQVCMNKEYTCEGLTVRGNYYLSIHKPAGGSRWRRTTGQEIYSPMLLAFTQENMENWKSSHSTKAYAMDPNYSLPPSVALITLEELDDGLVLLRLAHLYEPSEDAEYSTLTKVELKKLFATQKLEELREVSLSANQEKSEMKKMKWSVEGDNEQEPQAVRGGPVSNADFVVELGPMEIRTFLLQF
Format: biochemical. The text has this:
glycosidase inhibition assay on α-D-mannosidase from Jack beans

Usually inhibition stands for how much of the control response was suppressed. In the case of `O[C@H]1[C@H](O)[C@@H](O)C[C@H](O)[C@H](O)C[C@@H]1O` [compound 5, C8 hexa-substituted carbasugar 5], the inhibition at 1000 µM is 9% in assay [1] and 14% in assay [2].

In the case of `O[C@H]1[C@H](O)[C@H](O)C[C@H](O)[C@H](O)C[C@H]1O` [compound 6, C8 hexa-substituted carbasugar 6], the inhibition at 1000 µM in assay [2] was found to be 13%.

For `N[C@H]1C[C@H](O)[C@@H](O)[C@H](O)[C@@H](O)C[C@@H]1O` [compound 15, aminocyclitol 15], the inhibition at 1000 µM in assay [3] came to 28%; in assay [4] it was 16%.

Turning to `N[C@@H]1C[C@@H](O)[C@@H](O)[C@H](O)[C@H](O)C[C@H]1O` [compound 16, aminocyclitol 16], the inhibition at 1000 µM in assay [4] was 8%.

For `OCC(CO)N[C@H]1C[C@H](O)[C@@H](O)[C@H](O)[C@@H](O)C[C@@H]1O` [compound 19, C8-voglibose mimetic 19], the results for the inhibition at 1000 µM in assay [3] and in assay [4] were 27% and 10%, respectively.

Take `OCC(CO)N[C@@H]1C[C@@H](O)[C@@H](O)[C@H](O)[C@H](O)C[C@H]1O` [compound 20, aminocyclitol 20]: the inhibition at 1000 µM in assay [1] was 6%; in assay [3], 29%; in assay [4] it was 8%.

The values are drawn from publication PMC1399460, “Synthesis and glycosidase inhibitory activity of new hexa-substituted C8-glycomimetics” (Beilstein Journal of Organic Chemistry, 2005).
